Experimental data published in patent US20230113037A1 (Bayer Aktiengesellschaft, priority 2019, published 2023).
Where two headings read alike, the source gives them in different places.

Assays:
[1] = molecular target: T1, AHR (Homo sapiens, UniProt P35869); experiment: In vitro assay 1: antagonism in human cell line (AHR transactivation, firefly luciferase reporter, kynurenic acid prestimulated); type: cell-based; conditions: AHR Antagonism Human IC50 [M]
T1 construct: U87 MG glioblastoma cells (ATCC #HTB-14) endogenously expressing AHR; endogenous in cells; host or cells: U87 MG glioblastoma cells (ATCC #HTB-14)
T1 sequence (P35869 11-848): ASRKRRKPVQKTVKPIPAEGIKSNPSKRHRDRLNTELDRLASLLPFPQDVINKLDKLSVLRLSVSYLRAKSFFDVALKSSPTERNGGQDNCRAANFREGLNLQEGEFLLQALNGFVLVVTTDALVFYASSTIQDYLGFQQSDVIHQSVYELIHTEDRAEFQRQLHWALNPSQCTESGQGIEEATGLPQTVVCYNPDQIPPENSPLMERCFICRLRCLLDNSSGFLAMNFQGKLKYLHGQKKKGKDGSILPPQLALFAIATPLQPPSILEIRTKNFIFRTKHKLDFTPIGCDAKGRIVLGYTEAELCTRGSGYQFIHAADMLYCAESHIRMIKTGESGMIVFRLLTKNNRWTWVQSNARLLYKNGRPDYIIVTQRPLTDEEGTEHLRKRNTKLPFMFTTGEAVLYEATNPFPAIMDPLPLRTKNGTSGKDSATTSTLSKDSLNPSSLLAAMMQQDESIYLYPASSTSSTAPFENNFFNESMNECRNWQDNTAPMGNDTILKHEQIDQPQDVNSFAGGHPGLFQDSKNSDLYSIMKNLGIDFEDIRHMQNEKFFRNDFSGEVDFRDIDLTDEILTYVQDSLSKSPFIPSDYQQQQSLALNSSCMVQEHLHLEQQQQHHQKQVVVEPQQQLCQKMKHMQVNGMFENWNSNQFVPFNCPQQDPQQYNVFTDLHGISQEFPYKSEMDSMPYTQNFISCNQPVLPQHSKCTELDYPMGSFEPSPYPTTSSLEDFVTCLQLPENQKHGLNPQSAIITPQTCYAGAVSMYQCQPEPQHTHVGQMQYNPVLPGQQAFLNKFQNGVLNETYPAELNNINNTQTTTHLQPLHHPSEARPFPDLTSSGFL
Summary of the method: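 U87 MG + DRE-firefly/constitutive-Renilla stable reporters; kynurenic acid prestim; dual-luc read; Renilla = tox; normalized vs pos/neg controls (pos: 150 μM KYNA + 5 μM staurosporine).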

[2] = molecular target: T2, AHR (Mus musculus, UniProt P30561); experiment: In vitro assay 3: antagonism in mouse cell line (AHR transactivation, firefly luciferase reporter, kynurenic acid prestimulated); type: cell-based
T2 sequence (P30561 1-848 P471L/N533S/M589L): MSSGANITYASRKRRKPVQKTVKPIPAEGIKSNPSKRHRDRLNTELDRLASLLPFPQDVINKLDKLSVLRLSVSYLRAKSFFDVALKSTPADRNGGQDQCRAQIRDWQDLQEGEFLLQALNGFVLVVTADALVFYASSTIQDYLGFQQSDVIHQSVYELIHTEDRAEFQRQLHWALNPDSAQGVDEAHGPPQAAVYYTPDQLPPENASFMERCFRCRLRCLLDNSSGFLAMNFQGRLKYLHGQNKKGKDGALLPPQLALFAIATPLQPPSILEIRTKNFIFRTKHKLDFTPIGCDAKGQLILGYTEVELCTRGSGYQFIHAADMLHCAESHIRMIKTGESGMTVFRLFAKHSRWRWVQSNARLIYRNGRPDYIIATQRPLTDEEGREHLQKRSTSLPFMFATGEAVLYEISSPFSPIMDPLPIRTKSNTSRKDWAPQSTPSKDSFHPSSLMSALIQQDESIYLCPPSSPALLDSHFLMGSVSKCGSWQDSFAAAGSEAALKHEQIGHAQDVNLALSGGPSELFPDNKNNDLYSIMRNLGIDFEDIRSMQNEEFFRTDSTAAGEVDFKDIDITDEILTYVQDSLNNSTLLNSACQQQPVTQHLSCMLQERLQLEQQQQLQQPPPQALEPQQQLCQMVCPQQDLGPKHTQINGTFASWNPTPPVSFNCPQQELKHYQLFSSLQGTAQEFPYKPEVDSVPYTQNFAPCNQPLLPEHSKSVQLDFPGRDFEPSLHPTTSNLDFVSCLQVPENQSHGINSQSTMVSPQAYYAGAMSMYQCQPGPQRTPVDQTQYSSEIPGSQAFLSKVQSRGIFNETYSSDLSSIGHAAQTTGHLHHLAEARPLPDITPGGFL
Summary of the method: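 Mouse cells stably carrying a DRE-driven AHR-inducible firefly luciferase reporter were prestimulated with the endogenous agonist kynurenic acid before compound addition. Luciferase read by SteadyGlo; cells without kynurenic acid served as full-inhibition control, with normalization to positive and negative controls. Repeat tests reported as mean or median.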

[3] = Hepa 1c1c7 cells, 200 μM kynurenic acid, 20 hours, firefly luciferase reporter, read-out: AHR Antagonism Mouse IC50
[4] = mouse Hepa 1c1c7 cells, 200 μM kynurenic acid, 20 hours, read-out: AHR Antagonism Mouse IC50

Structure (SMILES) | IC50 [1] [M] | IC50 [2, 4] [nM] | also measured
CCn1cc(-c2nc3c4cccc(Br)c4nc(N[C@@H]4CCCCNC4=O)n3n2)cn1 [Example 831, (3R)-3-{[7-bromo-2-(1-ethyl-1H-pyrazol-4-yl)[1,2,4]triazolo[1,5-c]quinazolin-5-yl]amino}azepan-2-one] |  |  | IC50 ([1]; firefly luciferase reporter): 8.88e-10 M; IC50 [2, 3]: 1.54 nM
CCn1cc(-c2nc3c4cccc(C(F)(F)F)c4nc(N[C@@H]4CCCCNC4=O)n3n2)cn1 [Example 675, (3R)-3-{[2-(1-ethyl-1H-pyrazol-4-yl)-7-(trifluoromethyl)[1,2,4]triazolo[1,5-c]quinazolin-5-yl]amino}azepan-2-one] | 1.22e-09 | 2.26 | 
Cc1cccc2c1nc(N[C@@H]1CCCCNC1=O)n1nc(-c3cnn(C)c3)nc21 [Example 142, (3R)-3-{[7-methyl-2-(1-methyl-1H-pyrazol-4-yl)[1,2,4]triazolo[1,5-c]quinazolin-5-yl]amino}azepan-2-one] | 2.15e-09 | 21.1 | 
COc1ccc(-c2nc3c4cccc(Br)c4nc(N[C@H](C)C(=O)O)n3n2)cc1 [Example 870] |  |  | IC50 ([1]; firefly luciferase reporter): 1.09e-08 M; IC50 [2, 3]: 10.7 nM
Cc1sccc1-c1nc2c3ccccc3nc(N[C@@H]3CCCNC3=O)n2n1 [Example 348, (3R)-3-{[2-(2-methylthiophen-3-yl)[1,2,4]triazolo[1,5-c]quinazolin-5-yl]amino}piperidin-2-one] | 7.76e-08 | 37.4 | 
COC(=O)c1cccc2nc(N[C@@H]3CCCCNC3=O)n3nc(-c4ccc(OC)cc4)nc3c12 [Example 252, methyl 2-(4-methoxyphenyl)-5-{[(3R)-2-oxoazepan-3-yl]amino}[1,2,4]triazolo[1,5-c]quinazoline-10-carboxylate] | 6.55e-08 | 49.8 | 
CC[C@H](Nc1nc2c(Br)cccc2c2nc(-c3cnn(C)c3)nn12)C(N)=O [Example 694, (2S)-2-{[7-bromo-2-(1-methyl-1H-pyrazol-4-yl)[1,2,4]triazolo[1,5-c]quinazolin-5-yl]amino}butanamide] | 1.55e-07 | 719 | 
COc1ccc(-c2nc3c4cc(Cl)ccc4nc(N[C@@H]4CNCCNC4=O)n3n2)cc1 [Example 278, (6R)-6-{[9-chloro-2-(4-methoxyphenyl)[1,2,4]triazolo[1,5-c]quinazolin-5-yl]amino}-1,4-diazepan-5-one] | 3.72e-07 | 51 | 
O=C1NCCNC[C@H]1Nc1nc2ccccc2c2nc(-c3ccco3)nn12 [Example 258, (6R)-6-{[2-(furan-2-yl)[1,2,4]triazolo[1,5-c]quinazolin-5-yl]amino}-1,4-diazepan-5-one] | 7.15e-07 | 398 | 
Nc1ccc(-c2nc3c4ccccc4nc(N[C@@H]4CCCCNC4=O)n3n2)cn1 [Example 637, (3R)-3-{[2-(6-aminopyridin-3-yl)[1,2,4]triazolo[1,5-c]quinazolin-5-yl]amino}azepan-2-one] | 1.15e-08 | 21.4 | 
CC[C@@H](Nc1nc2ccccc2c2nc(-c3cn(C)nn3)nn12)C(N)=O [Example 793, (2R)-2-{[2-(1-methyl-1H-1,2,3-triazol-4-yl)[1,2,4]triazolo[1,5-c]quinazolin-5-yl]amino}butanamide] |  |  | IC50 ([1]; firefly luciferase reporter): 2.94e-06 M; IC50 ([2]; read-out: AHR Antagonism Mouse IC50, Hepa 1c1c7 cells, 200 μM kynurenic acid, 20 hours, firefly luciferase reporter): 694 nM
CN1CCCC[C@@H](Nc2nc3c(C(F)(F)F)cccc3c3nc(-c4cnn(C)c4)nn23)C1=O [Example 739, (3R)-1-methyl-3-{[2-(1-methyl-1H-pyrazol-4-yl)-7-(trifluoromethyl)[1,2,4]triazolo[1,5-c]quinazolin-5-yl]amino}azepan-2-one] | 6.64e-10 | 1.4 | 
CC[C@@H](Nc1nc2ccccc2c2nc(-c3ccccc3S(C)(=O)=O)nn12)C(N)=O [Example 451, (2R)-2-({2-[2-(methanesulfonyl)phenyl][1,2,4]triazolo[1,5-c]quinazolin-5-yl}amino)butanamide] | 7.16e-06 | 131 | 
O=C1NCCCC[C@H]1Nc1nc2ccccc2c2nc(-c3cnsc3)nn12 [Example 645, (3R)-3-{[2-(1,2-thiazol-4-yl)[1,2,4]triazolo[1,5-c]quinazolin-5-yl]amino}azepan-2-one] | 1.66e-08 | 6.64 | 
C[C@@H](Nc1nc2c(Br)cccc2c2nc(-c3cnn(C)c3)nn12)C(=O)N1CCN(C(=O)OC(C)(C)C)CC1 [Example 886, tert-butyl 4-{N-[7-bromo-2-(1-methyl-1H-pyrazol-4-yl)[1,2,4]triazolo[1,5-c]quinazolin-5-yl]-D-alanyl}piperazine-1-carboxylate] |  |  | IC50 ([1]; firefly luciferase reporter): 6.83e-08 M; IC50 [2, 3]: 99.3 nM
Cc1ccccc1-c1nc2c3ccccc3nc(NC3CCCNC3=O)n2n1 (single isomer, unassigned) [Example 49, 3-{[2-(2-methylphenyl)[1,2,4]triazolo[1,5-c]quinazolin-5-yl]amino}piperidin-2-one] | 8.5e-08 | 26.1 | 
O=C1NCCC[C@H]1Nc1nc2c(Br)cccc2c2nc(-c3ccccc3OC(F)(F)F)nn12 [Example 220, (3R)-3-({7-bromo-2-[2-(trifluoromethoxy)phenyl][1,2,4]triazolo[1,5-c]quinazolin-5-yl}amino)piperidin-2-one] | 2e-08 | 6.76 | 
CC[C@@H](Nc1nc2ccccc2c2nc(-c3ccc(Cl)cc3OC(F)(F)F)nn12)C(N)=O [Example 523, (2R)-2-({2-[4-chloro-2-(trifluoromethoxy)phenyl][1,2,4]triazolo[1,5-c]quinazolin-5-yl}amino)butanamide] | 4.99e-09 | 0.84 | 
O=C1NCCCC[C@H]1Nc1nc2ccccc2c2nc(-c3nc(CCO)no3)nn12 [Example 305, (3R)-3-({2-[3-(2-Hydroxyethyl)-1,2,4-oxadiazol-5-yl][1,2,4]triazolo[1,5-c]quinazolin-5-yl}amino)azepan-2-one] | 2.97e-07 |  | IC50 ([2]; read-out: AHR Antagonism Mouse IC50, mouse Hepa 1c1c7 cells, 200 μM kynurenic acid, 20 hours): 178 nM
C[C@@H](Nc1nc2c(C(F)(F)F)cccc2c2nc(-c3cnn(C)c3)nn12)C(=O)N1CCOCC1 [Example 874, (2R)-2-{[2-(1-methyl-1H-pyrazol-4-yl)-7-(trifluoromethyl)[1,2,4]triazolo[1,5-c]quinazolin-5-yl]amino}-1-(morpholin-4-yl)propan-1-one] |  |  | IC50 ([1]; firefly luciferase reporter): 2.31e-08 M; IC50 [2, 3]: 61.7 nM
C[C@@H](Nc1nc2c(Br)cccc2c2nc(-c3cnn(C)c3)nn12)C(=O)N1C[C@@H]2C[C@H]1CO2 [Example 915, (2R)-2-{[7-bromo-2-(1-methyl-1H-pyrazol-4-yl)[1,2,4]triaozlo[1,5-c]quinazolin-5-yl]amino}-1-[(1S,4S)-2-oxa-5-azabicyclo[2.2.1]heptna-5-yl]propan-1-one] |  |  | IC50 ([1]; firefly luciferase reporter): 1.74e-08 M; IC50 [2, 3]: 18.7 nM
COC(=O)c1cccc2c1nc(N[C@@H]1CCCCNC1=O)n1nc(-c3ccc(OC)cc3)nc21 [Example 250, Methyl 2-(4-methoxyphenyl)-5-{[(3R)-2-oxoazepan-3-yl]amino}[1,2,4]triazolo[1,5-c]quinazoline-7-carboxylate] | 1.43e-08 | 135 | 
